Measured values: the supplement of paper PMC10307832

What was measured:
Experiment in all cases: relative viability (nuclei count vs DMSO), 5 days (fraction); higher = more cells survive
[1] = compound: C#Cc1cccc(Nc2ncnc3cc(OCCOC)c(OCCOC)cc23)c1 [Erlotinib] + CC(C)C[C@H](NC(=O)[C@H](Cc1ccccc1)NC(=O)c1cnccn1)B(O)O [Bortezomib] (partner 0.002 µM)
Procedure, shortened: (§1)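 Dosing by pin tool came one day after lung cancer cell lines were seeded in 1536-well plates, using either one drug or a fixed anchor-drug dose plus five library-drug doses (not always all listed) in √10 steps. After 5 days, nuclei were counted on 4× images. Relative viability is treated-well nuclei count divided by vehicle-well nuclei count, and values are medians of duplicate plates.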

[2] = compound: C#Cc1cccc(Nc2ncnc3cc(OCCOC)c(OCCOC)cc23)c1 [Erlotinib] + C[C@@H](Oc1cc(-c2cnn(C3CCNCC3)c2)cnc1N)c1c(Cl)ccc(F)c1Cl [Crizotinib] (partner 1 µM)
Procedure, shortened: as §1

[3] = compound: C#Cc1cccc(Nc2ncnc3cc(OCCOC)c(OCCOC)cc23)c1 [Erlotinib] + Cc1nc(Nc2ncc(C(=O)Nc3c(C)cccc3Cl)s2)cc(N2CCN(CCO)CC2)n1 [Dasatinib] (partner 0.075 µM)
Procedure, shortened: as §1

[4] = compound: C#Cc1cccc(Nc2ncnc3cc(OCCOC)c(OCCOC)cc23)c1 [Erlotinib] + Nc1nc2[nH]cc(CCc3ccc(C(=O)N[C@@H](CCC(=O)O)C(=O)O)cc3)c2c(=O)[nH]1 [Pemetrexed] (partner 0.2 µM)
Procedure, shortened: as §1

[5] = compound: O=C(Nc1c[nH]nc1-c1nc2ccc(CN3CCOCC3)cc2[nH]1)NC1CC1 [AT9283] + O=C(CCCCCCC(=O)Nc1ccccc1)NO [Vorinostat] (partner 1 µM)
Procedure, shortened: as §1

LCLC-97TM1
relative viability ([1]; first compound 0.02 µM): 0.528
relative viability ([1]; first compound 0.2 µM): 0.747
relative viability ([1]; first compound 0.6325 µM): 0.529
relative viability ([1]; first compound 2 µM): 0.464
relative viability ([2]; first compound 0.02 µM): 0.44
relative viability ([2]; first compound 0.6325 µM): 0.376
relative viability ([2]; first compound 2 µM): 0.487
relative viability ([3]; first compound 0.02 µM): 0.749
relative viability ([3]; first compound 0.2 µM): 0.794
relative viability ([3]; first compound 0.6325 µM): 0.967
relative viability ([3]; first compound 2 µM): 0.782
relative viability ([4]; first compound 0.02 µM): 0.22
relative viability ([4]; first compound 0.2 µM): 0.201
relative viability ([4]; first compound 0.6325 µM): 0.176
relative viability ([4]; first compound 2 µM): 0.155
relative viability ([5]; first compound 0.003 µM): 0.734
relative viability ([5]; first compound 0.03 µM): 0.15
relative viability ([5]; first compound 0.09487 µM): 0.128
relative viability ([5]; first compound 0.3 µM): 0.0905

LCLC-103H
relative viability ([1]; first compound 0.02 µM): 1.16
relative viability ([1]; first compound 0.2 µM): 1.2
relative viability ([1]; first compound 0.6325 µM): 1.1
relative viability ([1]; first compound 2 µM): 0.992
relative viability ([2]; first compound 0.02 µM): 1.04
relative viability ([2]; first compound 0.2 µM): 1.09
relative viability ([2]; first compound 0.6325 µM): 1.16
relative viability ([2]; first compound 2 µM): 1.04
relative viability ([3]; first compound 0.2 µM): 0.6
relative viability ([3]; first compound 0.6325 µM): 0.478
relative viability ([3]; first compound 2 µM): 0.399
relative viability ([4]; first compound 0.02 µM): 0.502
relative viability ([4]; first compound 0.2 µM): 0.449
relative viability ([4]; first compound 0.6325 µM): 0.476
relative viability ([4]; first compound 2 µM): 0.45
relative viability ([5]; first compound 0.003 µM): 0.745
relative viability ([5]; first compound 0.03 µM): 0.566
relative viability ([5]; first compound 0.09487 µM): 0.355
relative viability ([5]; first compound 0.3 µM): 0.306

LOU-NH91
relative viability ([1]; first compound 0.02 µM): 0.525
relative viability ([1]; first compound 0.2 µM): 0.497
relative viability ([1]; first compound 0.6325 µM): 0.484
relative viability ([1]; first compound 2 µM): 0.458
relative viability ([2]; first compound 0.02 µM): 0.601
relative viability ([2]; first compound 0.2 µM): 0.54
relative viability ([2]; first compound 0.6325 µM): 0.55
relative viability ([2]; first compound 2 µM): 0.499
relative viability ([3]; first compound 0.02 µM): 0.459
relative viability ([3]; first compound 0.2 µM): 0.434
relative viability ([3]; first compound 0.6325 µM): 0.415
relative viability ([3]; first compound 2 µM): 0.365
relative viability ([4]; first compound 0.02 µM): 0.448
relative viability ([4]; first compound 0.2 µM): 0.393
relative viability ([4]; first compound 0.6325 µM): 0.414
relative viability ([4]; first compound 2 µM): 0.371
relative viability ([5]; first compound 0.003 µM): 0.905
relative viability ([5]; first compound 0.03 µM): 0.552
relative viability ([5]; first compound 0.09487 µM): 0.449
relative viability ([5]; first compound 0.3 µM): 0.432

LU99A
relative viability ([1]; first compound 0.02 µM): 1.34
relative viability ([1]; first compound 0.2 µM): 1.1
relative viability ([1]; first compound 0.6325 µM): 1.24
relative viability ([1]; first compound 2 µM): 0.899
relative viability ([2]; first compound 0.02 µM): 0.612
relative viability ([2]; first compound 0.2 µM): 0.607
relative viability ([2]; first compound 0.6325 µM): 0.64
relative viability ([2]; first compound 2 µM): 0.432
relative viability ([3]; first compound 0.02 µM): 0.556
relative viability ([3]; first compound 0.2 µM): 0.474
relative viability ([3]; first compound 0.6325 µM): 0.584
relative viability ([3]; first compound 2 µM): 0.475
relative viability ([4]; first compound 0.02 µM): 0.166
relative viability ([4]; first compound 0.2 µM): 0.196
relative viability ([4]; first compound 0.6325 µM): 0.16
relative viability ([4]; first compound 2 µM): 0.151
relative viability ([5]; first compound 0.003 µM): 0.457
relative viability ([5]; first compound 0.03 µM): 0.253
relative viability ([5]; first compound 0.09487 µM): 0.228
relative viability ([5]; first compound 0.3 µM): 0.15

LXF-289
relative viability ([1]; first compound 0.02 µM): 0.964
relative viability ([1]; first compound 0.2 µM): 0.999
relative viability ([1]; first compound 0.6325 µM): 0.921
relative viability ([1]; first compound 2 µM): 0.857
relative viability ([2]; first compound 0.02 µM): 0.818
relative viability ([2]; first compound 0.2 µM): 0.828
relative viability ([2]; first compound 0.6325 µM): 0.761
relative viability ([2]; first compound 2 µM): 0.711
relative viability ([3]; first compound 0.02 µM): 0.295
relative viability ([3]; first compound 0.2 µM): 0.274
relative viability ([3]; first compound 0.6325 µM): 0.239
relative viability ([3]; first compound 2 µM): 0.183
relative viability ([4]; first compound 0.02 µM): 0.908
relative viability ([4]; first compound 0.6325 µM): 0.819
relative viability ([4]; first compound 2 µM): 0.783
relative viability ([5]; first compound 0.003 µM): 0.751
relative viability ([5]; first compound 0.03 µM): 0.56
relative viability ([5]; first compound 0.09487 µM): 0.224
relative viability ([5]; first compound 0.3 µM): 0.168

NCI-H23
relative viability ([1]; first compound 0.02 µM): 0.915
relative viability ([1]; first compound 0.6325 µM): 1.32
relative viability ([1]; first compound 2 µM): 0.917
relative viability ([2]; first compound 0.02 µM): 0.565
relative viability ([2]; first compound 0.2 µM): 0.481
relative viability ([2]; first compound 0.6325 µM): 0.601
relative viability ([2]; first compound 2 µM): 0.433
relative viability ([3]; first compound 0.02 µM): 0.876
relative viability ([3]; first compound 0.6325 µM): 0.928
relative viability ([3]; first compound 2 µM): 0.698
relative viability ([4]; first compound 0.02 µM): 0.774
relative viability ([4]; first compound 0.2 µM): 0.575
relative viability ([4]; first compound 0.6325 µM): 0.747
relative viability ([4]; first compound 2 µM): 0.523
relative viability ([5]; first compound 0.003 µM): 0.523
relative viability ([5]; first compound 0.03 µM): 0.363
relative viability ([5]; first compound 0.09487 µM): 0.183
relative viability ([5]; first compound 0.3 µM): 0.177

NCI-H322M
relative viability ([1]; first compound 0.02 µM): 1.21
relative viability ([1]; first compound 0.2 µM): 1.17
relative viability ([1]; first compound 0.6325 µM): 1.12
relative viability ([1]; first compound 2 µM): 0.57
relative viability ([2]; first compound 0.02 µM): 0.786
relative viability ([2]; first compound 0.2 µM): 0.707
relative viability ([2]; first compound 0.6325 µM): 0.668
relative viability ([2]; first compound 2 µM): 0.322
relative viability ([3]; first compound 0.02 µM): 0.231
relative viability ([3]; first compound 0.2 µM): 0.246
relative viability ([3]; first compound 0.6325 µM): 0.257
relative viability ([3]; first compound 2 µM): 0.238
relative viability ([4]; first compound 0.02 µM): 0.604
relative viability ([4]; first compound 0.2 µM): 0.548
relative viability ([4]; first compound 0.6325 µM): 0.521
relative viability ([4]; first compound 2 µM): 0.507
relative viability ([5]; first compound 0.003 µM): 0.87
relative viability ([5]; first compound 0.03 µM): 0.579
relative viability ([5]; first compound 0.09487 µM): 0.497
relative viability ([5]; first compound 0.3 µM): 0.407

NCI-H460
relative viability ([1]; first compound 0.02 µM): 1.09
relative viability ([1]; first compound 0.2 µM): 1.12
relative viability ([1]; first compound 0.6325 µM): 1.52
relative viability ([1]; first compound 2 µM): 1.09
relative viability ([2]; first compound 0.02 µM): 1.08
relative viability ([2]; first compound 0.2 µM): 0.763
relative viability ([2]; first compound 0.6325 µM): 1.26
relative viability ([2]; first compound 2 µM): 0.74
relative viability ([3]; first compound 0.02 µM): 0.486
relative viability ([3]; first compound 0.2 µM): 0.51
relative viability ([3]; first compound 0.6325 µM): 0.5
relative viability ([3]; first compound 2 µM): 0.432
relative viability ([4]; first compound 0.02 µM): 0.0628
relative viability ([4]; first compound 0.2 µM): 0.0521
relative viability ([4]; first compound 0.6325 µM): 0.0611
relative viability ([4]; first compound 2 µM): 0.0588
relative viability ([5]; first compound 0.003 µM): 0.856
relative viability ([5]; first compound 0.03 µM): 0.639
relative viability ([5]; first compound 0.09487 µM): 0.158
relative viability ([5]; first compound 0.3 µM): 0.0711
